Source: patent US10875844B2, “Salicylate inhibitors of MELK and methods of use” (priority 2015, dated 2020)

Target: T1, MELK (Homo sapiens, UniProt Q14680)
T1 construct: purchased Life Technologies
Test: Z′-LYTE biochemical assay (Life Technologies), MELK inhibition
Description: The invention also provides methods for inhibiting MELK, comprising contacting MELK with a compound of the invention in an amount effective to inhibit MELK. In certain embodiments, the method is conducted in vitro. In certain embodiments, the method is conducted in vivo. Inhibition of MELK can be determined by the Z′-LYTE® biochemical assay from Life Technologies (Life Technologies Z′-LYTE® Screening Protocol and Assay Conditions, June 2012, incorporated herein by reference).
The following compounds were made according to the general scheme shown in Example 1. IC50 against MELK was determined by Z′-LYTE® biochemical assay at 25 uM ATP concentration, and are measured in nM.

T1 sequence (Q14680 whole entry): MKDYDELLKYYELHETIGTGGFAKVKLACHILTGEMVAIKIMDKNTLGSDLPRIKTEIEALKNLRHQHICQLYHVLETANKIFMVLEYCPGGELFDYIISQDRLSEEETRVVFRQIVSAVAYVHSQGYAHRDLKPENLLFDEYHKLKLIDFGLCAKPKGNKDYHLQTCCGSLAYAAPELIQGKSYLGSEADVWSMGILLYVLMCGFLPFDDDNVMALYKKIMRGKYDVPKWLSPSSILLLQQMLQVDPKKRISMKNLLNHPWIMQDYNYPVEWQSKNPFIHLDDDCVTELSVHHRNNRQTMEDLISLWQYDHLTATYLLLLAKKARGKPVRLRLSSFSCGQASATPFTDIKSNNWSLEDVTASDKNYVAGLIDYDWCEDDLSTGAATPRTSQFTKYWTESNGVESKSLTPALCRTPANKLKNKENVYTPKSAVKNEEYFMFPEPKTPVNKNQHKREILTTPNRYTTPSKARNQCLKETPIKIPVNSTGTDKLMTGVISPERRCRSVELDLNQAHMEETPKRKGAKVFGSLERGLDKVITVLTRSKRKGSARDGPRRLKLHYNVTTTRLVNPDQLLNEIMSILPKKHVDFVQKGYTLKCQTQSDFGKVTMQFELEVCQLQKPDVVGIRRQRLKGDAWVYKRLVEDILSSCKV

Question: Which IC50 does the source give for `O=C(Nc1ccc2c(c1)CCNCC2)c1ccc(-c2cn[nH]c2)cc1OCCN1CCOCC1` here?
Answer: Its IC50 is 85.3 nM.

Question: `O=C(Nc1cccc2c1CCNCC2)c1ccc(-c2cn[nH]c2)cc1OCc1ccccc1` [Compound 02-103] was tested. Which IC50 did it give?
Answer: Its IC50 is 134 nM.

Question: Which IC50 does the source give for `O=C(Nc1ccc2c(c1)CCNCC2)c1ccc(-c2cn[nH]c2)cc1OCc1cccnc1` here?
Answer: The IC50 was 16.2 nM.

Question: Which IC50 does the source give for `O=C(Nc1ccc2c(c1)CCNCC2)c1ccc(-c2cn[nH]c2)cc1O` here?
Answer: The IC50 was 68.8 nM.

Question: With `O=C(Nc1ccc2c(c1)CCNCC2)c1ccc(-c2cn[nH]c2)cc1OCCN1CCCC1` as the compound, how does the IC50 read?
Answer: Its IC50 is 75.1 nM.

Question: How did the IC50 turn out when `O=C(Nc1ccc2c(c1)CCNCC2)c1ccc(-c2cn[nH]c2)cc1OC1CCCCC1` was run?
Answer: Its IC50 is 2.99 nM.

Question: `O=C(Nc1ccc2c(c1)CCNCC2)c1ccc(-c2cc(Cl)c(O)c(Cl)c2)cc1OCc1ccccc1` [Compound 02-104, 3-(benzyloxy)-3′,5′-dichloro-4′-hydroxy-N-(2,3,4,5-tetrahydro-1H-benzo[d]azepin-7-yl)-[1,1′-biphenyl]-4-carboxamide] was tested. Which IC50 did it give?
Answer: Its IC50 is 1.92 nM.

Question: `O=C(Nc1ccccc1)c1ccc(-c2cn[nH]c2)cc1OCc1ccccc1` was tested. Which IC50 did it give?
Answer: The IC50 was 1160 nM.

Question: For `O=C(Nc1ccc2c(c1)CCNCC2)c1ccc(-c2cn[nH]c2)cc1OCc1ccccc1` [Compound 02-102, 2-(benzyloxy)-4-(1H-pyrazol-4-yl)-N-(2,3,4,5-tetrahydro-1H-benzo[d]azepin-7-yl)benzamide], which IC50 is on record?
Answer: Its IC50 is 2.17 nM.

Question: How did the IC50 turn out when `O=C(Nc1ccc2c(c1)CCNCC2)c1ccc(-c2cn[nH]c2)cc1OCC1CCCCC1` was run?
Answer: Its IC50 is 5.48 nM.

Question: With `O=C(Nc1ccc2c(c1)CCNCC2)c1ccc(-c2cn[nH]c2)cc1OC(CN1CCCC1)c1ccccc1` (centres unmarked) as the compound, how does the IC50 read?
Answer: The IC50 was 213 nM.

Question: With `O=C(Nc1ccc2c(c1)CCNCC2)c1ccc(-c2cn[nH]c2)cc1OC1Cc2ccccc2C1` as the compound, how does the IC50 read?
Answer: The IC50 was 1.05 nM.

Question: `CC(=O)N1CCc2ccc(NC(=O)c3ccc(-c4cn[nH]c4)cc3OCc3ccccc3)cc2CC1` [Compound 02-111, N-(3-acetyl-2,3,4,5-tetrahydro-1H-benzo[d]azepin-7-yl)-2-(benzyloxy)-4-(1H-pyrazol-4-yl)benzamide] was tested. Which IC50 did it give?
Answer: Its IC50 is 60.6 nM.

Question: For `O=C(Nc1ccc2c(c1)CCNCC2)c1ccc(-c2cn[nH]c2)cc1OCCN1CCCC1=O`, which IC50 is on record?
Answer: Its IC50 is 80.6 nM.
